What was measured:
Assay type in all cases: biochemical
TXK = molecular target: T1, TXK (Homo sapiens, UniProt P42681); experiment: Kinome profiling TXK; details: read-out: Inhibitory activity TXK; for inhibition at 0.1 µM: 100 nM
T1 sequence (P42681 1-527): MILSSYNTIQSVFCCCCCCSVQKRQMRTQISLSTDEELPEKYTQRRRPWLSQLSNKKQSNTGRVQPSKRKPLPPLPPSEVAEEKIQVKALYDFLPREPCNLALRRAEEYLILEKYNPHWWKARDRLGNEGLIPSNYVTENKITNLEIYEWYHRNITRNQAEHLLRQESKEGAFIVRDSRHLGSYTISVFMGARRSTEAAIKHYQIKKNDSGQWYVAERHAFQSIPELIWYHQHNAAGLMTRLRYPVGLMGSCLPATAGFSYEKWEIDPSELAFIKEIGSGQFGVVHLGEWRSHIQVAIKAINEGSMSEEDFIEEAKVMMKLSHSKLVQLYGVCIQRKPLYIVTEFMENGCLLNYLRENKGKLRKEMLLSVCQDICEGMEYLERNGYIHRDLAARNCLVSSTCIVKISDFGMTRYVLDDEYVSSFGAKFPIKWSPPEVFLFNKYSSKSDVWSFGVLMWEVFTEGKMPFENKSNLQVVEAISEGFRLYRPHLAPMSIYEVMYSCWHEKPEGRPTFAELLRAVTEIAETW
Procedure: (§1) . The kinome-wide selectivity was determined following the methods previously reported by Mohedas et al., ACS Chem Biol 2013, 8, 1291-1302 and Sanvitale et al., PLoS One 2013, 8, e62721.

CSK = CSK (Homo sapiens, UniProt P41240); experiment: Kinome profiling CSK; details: read-out: Inhibitory activity CSK; for inhibition at 0.1 µM: 100 nM
Procedure: as §1

MRCK-β = MRCK-β (Homo sapiens, UniProt Q9Y5S2); experiment: Kinome profiling MRCK-β; details: read-out: Inhibitory activity MRCK-β; for inhibition at 0.1 µM: 100 nM
Procedure: as §1

MET = MET (Homo sapiens, UniProt P08581); experiment: Kinome profiling MET; details: read-out: Inhibitory activity MET; for inhibition at 0.1 µM: 100 nM
Procedure: as §1

MKNK1 = MKNK1 (Homo sapiens, UniProt Q9BUB5); experiment: Kinome profiling MKNK1; details: read-out: Inhibitory activity MKNK1; for inhibition at 0.1 µM: 100 nM
Procedure: as §1

TSSK1 = molecular target: T2, TSSK1 (Homo sapiens, UniProt Q9BXA7); experiment: Kinome profiling TSSK1; details: read-out: Inhibitory activity TSSK1; for inhibition at 0.1 µM: 100 nM
T2 sequence (Q9BXA7 1-367): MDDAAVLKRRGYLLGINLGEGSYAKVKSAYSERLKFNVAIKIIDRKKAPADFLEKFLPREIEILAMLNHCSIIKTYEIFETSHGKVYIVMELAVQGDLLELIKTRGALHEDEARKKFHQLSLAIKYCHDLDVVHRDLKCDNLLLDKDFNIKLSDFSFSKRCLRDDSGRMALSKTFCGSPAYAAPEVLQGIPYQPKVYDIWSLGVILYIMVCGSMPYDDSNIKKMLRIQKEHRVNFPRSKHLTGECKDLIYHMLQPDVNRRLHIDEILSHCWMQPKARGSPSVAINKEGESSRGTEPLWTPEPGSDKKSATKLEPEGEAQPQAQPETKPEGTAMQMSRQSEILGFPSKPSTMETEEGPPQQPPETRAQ
Procedure: as §1

AURORA-A = molecular target: T3, AURORA-A (Homo sapiens, UniProt O14965); experiment: Kinome profiling AURORA-A; details: read-out: Inhibitory activity AURORA-A; for inhibition at 0.1 µM: 100 nM
T3 sequence (O14965 1-403): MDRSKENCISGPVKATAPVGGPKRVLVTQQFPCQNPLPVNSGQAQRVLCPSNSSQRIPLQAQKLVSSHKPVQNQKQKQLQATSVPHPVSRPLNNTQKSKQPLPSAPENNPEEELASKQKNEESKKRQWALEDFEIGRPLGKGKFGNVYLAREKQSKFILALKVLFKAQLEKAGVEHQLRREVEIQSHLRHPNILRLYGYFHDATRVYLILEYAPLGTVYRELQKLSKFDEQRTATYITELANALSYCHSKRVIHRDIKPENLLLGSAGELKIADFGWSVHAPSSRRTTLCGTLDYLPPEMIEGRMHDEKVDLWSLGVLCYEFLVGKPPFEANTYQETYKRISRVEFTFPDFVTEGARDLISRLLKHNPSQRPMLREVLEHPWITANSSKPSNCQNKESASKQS
Procedure: as §1

HIPK1 = HIPK1 (Homo sapiens, UniProt Q86Z02); experiment: Kinome profiling HIPK1; details: read-out: Inhibitory activity HIPK1; for inhibition at 0.1 µM: 100 nM
Procedure: as §1

CDK2/cyclinE = CDK2/cyclinE (Homo sapiens, UniProt P24941); experiment: Kinome profiling CDK2/cyclinE; details: read-out: Inhibitory activity CDK2/cyclinE; for inhibition at 0.1 µM: 100 nM
Procedure: as §1

P70S6KB1 = P70S6KB1 (Homo sapiens, UniProt P23443); experiment: Kinome profiling P70S6KB1; details: read-out: Inhibitory activity P70S6KB1; for inhibition at 0.1 µM: 100 nM
Procedure: as §1

GSK3α = GSK3α (Homo sapiens, UniProt P49840); experiment: Kinome profiling GSK3α; details: read-out: Inhibitory activity GSK3α; for inhibition at 0.1 µM: 100 nM
Procedure: as §1

Chain of GSK3α (P49840 whole entry): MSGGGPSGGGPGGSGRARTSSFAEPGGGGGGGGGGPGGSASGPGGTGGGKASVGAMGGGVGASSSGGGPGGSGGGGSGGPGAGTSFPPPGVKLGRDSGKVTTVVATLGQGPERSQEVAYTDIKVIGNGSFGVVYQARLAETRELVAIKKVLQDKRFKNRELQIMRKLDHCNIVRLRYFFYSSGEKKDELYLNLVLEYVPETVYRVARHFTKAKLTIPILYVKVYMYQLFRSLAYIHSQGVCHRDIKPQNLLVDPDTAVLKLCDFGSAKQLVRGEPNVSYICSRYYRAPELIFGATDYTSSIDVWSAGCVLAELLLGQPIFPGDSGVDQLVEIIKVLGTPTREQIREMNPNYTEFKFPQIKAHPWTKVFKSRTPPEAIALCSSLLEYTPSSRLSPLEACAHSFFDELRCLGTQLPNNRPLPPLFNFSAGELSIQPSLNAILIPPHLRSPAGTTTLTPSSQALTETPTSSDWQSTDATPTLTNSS
Chain of P70S6KB1 (P23443 whole entry): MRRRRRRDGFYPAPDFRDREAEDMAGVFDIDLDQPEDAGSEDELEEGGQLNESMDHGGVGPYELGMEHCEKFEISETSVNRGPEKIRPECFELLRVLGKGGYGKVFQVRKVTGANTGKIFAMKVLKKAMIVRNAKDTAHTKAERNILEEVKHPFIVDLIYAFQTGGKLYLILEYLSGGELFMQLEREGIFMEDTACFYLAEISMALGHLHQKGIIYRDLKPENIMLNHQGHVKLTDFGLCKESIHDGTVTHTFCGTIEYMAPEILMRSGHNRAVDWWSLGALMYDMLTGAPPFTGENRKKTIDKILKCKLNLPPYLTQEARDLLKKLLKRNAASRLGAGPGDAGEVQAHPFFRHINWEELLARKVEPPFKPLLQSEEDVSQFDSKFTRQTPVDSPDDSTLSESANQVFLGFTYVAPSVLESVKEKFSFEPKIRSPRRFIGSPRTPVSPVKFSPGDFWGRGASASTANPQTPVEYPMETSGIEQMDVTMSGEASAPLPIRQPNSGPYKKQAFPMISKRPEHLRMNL
Chain of MKNK1 (Q9BUB5 whole entry): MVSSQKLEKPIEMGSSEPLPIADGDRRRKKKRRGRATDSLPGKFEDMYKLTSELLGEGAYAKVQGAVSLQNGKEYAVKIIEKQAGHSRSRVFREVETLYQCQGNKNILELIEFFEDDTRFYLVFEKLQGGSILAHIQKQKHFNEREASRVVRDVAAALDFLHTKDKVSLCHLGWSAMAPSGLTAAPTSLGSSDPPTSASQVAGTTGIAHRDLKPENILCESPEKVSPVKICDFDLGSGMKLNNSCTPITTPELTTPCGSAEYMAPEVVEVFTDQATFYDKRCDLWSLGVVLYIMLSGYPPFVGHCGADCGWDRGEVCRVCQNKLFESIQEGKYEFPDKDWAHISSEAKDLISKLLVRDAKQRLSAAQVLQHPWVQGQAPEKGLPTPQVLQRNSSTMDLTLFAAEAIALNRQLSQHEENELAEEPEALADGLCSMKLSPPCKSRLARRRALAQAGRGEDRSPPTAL
Chain of MRCK-β (Q9Y5S2 whole entry): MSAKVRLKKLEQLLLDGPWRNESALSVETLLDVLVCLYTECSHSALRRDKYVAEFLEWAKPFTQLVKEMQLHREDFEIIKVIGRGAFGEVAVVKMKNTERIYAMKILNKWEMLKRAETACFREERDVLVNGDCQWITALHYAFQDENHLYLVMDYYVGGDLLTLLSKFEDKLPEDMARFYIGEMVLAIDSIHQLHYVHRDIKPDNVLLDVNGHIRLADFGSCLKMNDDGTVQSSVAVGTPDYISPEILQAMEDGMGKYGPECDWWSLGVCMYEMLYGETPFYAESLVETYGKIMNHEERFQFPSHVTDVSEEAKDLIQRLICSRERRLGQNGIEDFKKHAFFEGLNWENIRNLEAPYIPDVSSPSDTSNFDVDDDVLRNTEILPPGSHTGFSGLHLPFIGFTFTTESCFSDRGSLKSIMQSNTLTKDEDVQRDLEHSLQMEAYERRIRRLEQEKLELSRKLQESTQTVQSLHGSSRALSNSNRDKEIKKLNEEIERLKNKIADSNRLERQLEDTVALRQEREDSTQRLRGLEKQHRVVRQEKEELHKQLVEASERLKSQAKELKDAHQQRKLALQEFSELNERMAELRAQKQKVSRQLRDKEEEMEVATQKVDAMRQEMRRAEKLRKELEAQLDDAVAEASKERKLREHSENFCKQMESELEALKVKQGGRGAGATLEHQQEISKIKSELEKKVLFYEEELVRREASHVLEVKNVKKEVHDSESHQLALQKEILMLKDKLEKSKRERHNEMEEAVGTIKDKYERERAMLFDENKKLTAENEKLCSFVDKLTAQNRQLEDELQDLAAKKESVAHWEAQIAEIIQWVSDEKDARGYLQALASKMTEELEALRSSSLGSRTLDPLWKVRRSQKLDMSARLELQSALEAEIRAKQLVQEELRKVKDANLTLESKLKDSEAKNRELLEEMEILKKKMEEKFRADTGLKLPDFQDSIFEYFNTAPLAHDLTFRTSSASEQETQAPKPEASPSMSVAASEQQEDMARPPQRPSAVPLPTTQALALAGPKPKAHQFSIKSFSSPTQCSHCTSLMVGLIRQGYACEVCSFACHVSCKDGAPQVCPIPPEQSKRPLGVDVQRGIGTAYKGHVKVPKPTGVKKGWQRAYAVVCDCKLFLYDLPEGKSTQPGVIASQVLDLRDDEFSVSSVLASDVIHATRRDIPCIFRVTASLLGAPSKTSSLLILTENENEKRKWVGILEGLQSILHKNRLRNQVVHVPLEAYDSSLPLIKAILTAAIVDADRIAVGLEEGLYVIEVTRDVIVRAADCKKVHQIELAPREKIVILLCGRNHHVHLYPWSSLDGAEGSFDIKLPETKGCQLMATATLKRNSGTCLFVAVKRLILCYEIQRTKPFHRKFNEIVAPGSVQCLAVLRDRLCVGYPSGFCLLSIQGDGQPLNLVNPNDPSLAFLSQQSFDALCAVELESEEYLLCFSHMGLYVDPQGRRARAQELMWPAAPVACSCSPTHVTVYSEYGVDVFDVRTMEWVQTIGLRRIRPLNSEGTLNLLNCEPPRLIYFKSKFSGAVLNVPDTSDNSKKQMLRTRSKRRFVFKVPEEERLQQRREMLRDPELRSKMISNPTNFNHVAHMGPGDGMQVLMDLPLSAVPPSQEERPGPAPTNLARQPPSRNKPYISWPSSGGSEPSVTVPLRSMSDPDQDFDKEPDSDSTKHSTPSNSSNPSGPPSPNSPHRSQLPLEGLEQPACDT
Chain of HIPK1 (Q86Z02 whole entry): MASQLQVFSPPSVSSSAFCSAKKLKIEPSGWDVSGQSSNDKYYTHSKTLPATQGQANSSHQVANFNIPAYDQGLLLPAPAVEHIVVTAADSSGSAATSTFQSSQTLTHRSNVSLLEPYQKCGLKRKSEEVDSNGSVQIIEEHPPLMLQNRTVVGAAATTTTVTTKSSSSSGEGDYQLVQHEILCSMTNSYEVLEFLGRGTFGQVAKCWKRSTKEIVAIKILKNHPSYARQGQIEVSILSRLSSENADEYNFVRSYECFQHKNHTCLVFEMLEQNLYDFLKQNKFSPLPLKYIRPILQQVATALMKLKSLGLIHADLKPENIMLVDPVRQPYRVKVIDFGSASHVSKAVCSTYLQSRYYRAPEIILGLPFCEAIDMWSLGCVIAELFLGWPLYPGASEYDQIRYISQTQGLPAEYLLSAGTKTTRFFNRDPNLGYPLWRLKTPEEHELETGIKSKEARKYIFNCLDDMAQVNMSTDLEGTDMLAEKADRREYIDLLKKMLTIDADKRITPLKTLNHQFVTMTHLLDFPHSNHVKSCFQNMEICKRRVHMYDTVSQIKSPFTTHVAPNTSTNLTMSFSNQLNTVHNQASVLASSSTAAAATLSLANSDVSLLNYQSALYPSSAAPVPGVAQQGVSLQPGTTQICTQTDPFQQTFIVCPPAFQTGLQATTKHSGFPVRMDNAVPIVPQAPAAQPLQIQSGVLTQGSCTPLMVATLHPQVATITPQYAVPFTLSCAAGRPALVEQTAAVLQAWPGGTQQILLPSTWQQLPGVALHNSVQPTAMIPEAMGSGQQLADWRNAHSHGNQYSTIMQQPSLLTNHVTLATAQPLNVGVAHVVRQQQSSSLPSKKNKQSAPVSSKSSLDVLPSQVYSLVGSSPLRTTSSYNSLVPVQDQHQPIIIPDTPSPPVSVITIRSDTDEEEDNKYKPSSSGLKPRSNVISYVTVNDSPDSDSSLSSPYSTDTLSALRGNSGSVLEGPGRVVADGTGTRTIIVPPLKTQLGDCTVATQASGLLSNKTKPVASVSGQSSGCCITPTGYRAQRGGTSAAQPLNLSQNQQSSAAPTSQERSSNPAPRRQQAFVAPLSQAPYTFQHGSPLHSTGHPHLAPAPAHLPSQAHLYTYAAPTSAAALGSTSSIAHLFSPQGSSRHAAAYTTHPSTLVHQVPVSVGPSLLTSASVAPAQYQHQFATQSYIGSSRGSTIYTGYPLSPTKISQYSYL
Chain of CSK (P41240 whole entry): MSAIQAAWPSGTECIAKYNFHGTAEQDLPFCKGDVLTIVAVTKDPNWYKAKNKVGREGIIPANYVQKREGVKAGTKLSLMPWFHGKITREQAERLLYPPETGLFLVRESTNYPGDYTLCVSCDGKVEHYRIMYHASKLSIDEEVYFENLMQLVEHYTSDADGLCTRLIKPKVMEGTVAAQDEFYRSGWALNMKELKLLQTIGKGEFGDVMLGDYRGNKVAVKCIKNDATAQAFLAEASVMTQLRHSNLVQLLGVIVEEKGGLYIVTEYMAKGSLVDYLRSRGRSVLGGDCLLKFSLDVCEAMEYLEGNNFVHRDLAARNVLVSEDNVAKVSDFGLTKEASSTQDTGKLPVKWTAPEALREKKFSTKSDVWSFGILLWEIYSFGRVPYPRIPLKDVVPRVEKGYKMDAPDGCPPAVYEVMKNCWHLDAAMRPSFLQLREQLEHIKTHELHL

Structure (SMILES)	inhibition at 0.1 µM (TXK) [%]	inhibition at 1 µM (TXK) [%]	inhibition at 0.1 µM (CSK) [%]	inhibition at 1 µM (CSK) [%]	inhibition at 0.1 µM (MRCK-β) [%]	inhibition at 1 µM (MRCK-β) [%]	inhibition at 0.1 µM (MET) [%]	inhibition at 1 µM (MET) [%]	inhibition at 0.1 µM (MKNK1) [%]	inhibition at 1 µM (MKNK1) [%]	inhibition at 0.1 µM (TSSK1) [%]	inhibition at 1 µM (TSSK1) [%]	inhibition at 0.1 µM (AURORA-A) [%]	inhibition at 1 µM (AURORA-A) [%]	inhibition at 0.1 µM (HIPK1) [%]	inhibition at 1 µM (HIPK1) [%]	inhibition at 0.1 µM (CDK2/cyclinE) [%]	inhibition at 1 µM (CDK2/cyclinE) [%]	inhibition at 0.1 µM (P70S6KB1) [%]	inhibition at 1 µM (P70S6KB1) [%]	also measured
COc1cc(-c2cc(-c3ccc(N4CCNCC4)cc3)cnc2C)cc(OC)c1OC [Compound 10, 1-(4-(6-methyl-5-(3,4,5-trimethoxyphenyl)pyridin-3-yl)phenyl)piperazine]	12	14	4	5	0	0	-1	2	3	5	2	2	2	3	1	1	-1	3	1	1	inhibition at 0.1 µM (GSK3α): 1%; inhibition at 1 µM (GSK3α): 1%
COc1cc(-c2cc(-c3ccc(N4CCNCC4)cc3)cnc2N)cc(OC)c1OC [Compound 15, 5-(4-(piperazin-1-yl)phenyl)-3-(3,4,5-trimethoxyphenyl)pyridin-2-amine]	21	66	10	36	3	22	7	21	3	5	1	5	2	3	1	2	1	2	0	0	inhibition at 0.1 µM (GSK3α): 1%; inhibition at 1 µM (GSK3α): 0%

Source: patent publication US20170190705A1, “Compositions and Methods for Inhibiting BMP” (THE BRIGHAM AND WOMAN'S HOSPITAL, INC., priority 2014, published 2017)
